These results are taken from patent US10703764B2, “Benzopiperazine compositions as BET bromodomain inhibitors” (FORMA Therapeutics, Inc., priority 2013, dated 2020).

Where two headings read alike, the source gives them in different places.

One test concerns the target T1, BRD4 BD1 (Homo sapiens, UniProt O60885).
T1 construct: made in house
Description: AlphaScreen binding assay, BRD4 Bromodomain 1. The gist of the method:
(§1)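 An AlphaScreen competition format was used with His-BRD4 BD1 or BD2 and biotin-H4 K5/8/12/16-acetyl peptide, each at matched final levels of 50 nM (BD1) or 100 nM (BD2). Incubation in HEPES/NaCl buffer with 0.1% BSA and 0.01% Triton X-100 ran ≥1 h before IC50 determination.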
(In general: Alpha assays give light when donor and acceptor beads are brought close together.)

The target of a further test is T2, BRD4 BD2 (Homo sapiens, UniProt O60885).
T2 construct: made in house
Description: AlphaScreen binding assay, BRD4 Bromodomain 2. The gist of the method: as §1

The next test concerns MV4-11 cells. Description: Oncology cell growth assay (3-day proliferation, CellTiter-Glo). The test is classed as cell-based. Particulars: Homo sapiens, AML cell line MV4-11, 72 hours, compounds grouped by IC50 range, read-out: MV4-11 IC50 (inhibition of proliferation, gIC50). The gist of the method:
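Compounds were serially diluted 3-fold in DMSO, giving final well concentrations from 10 down to 0.0045 μM. MV4-11 cells were then seeded at 3000 cells/well in RPMI 1640 with 10% FBS and incubated 72 hours. CellTiter-Glo signal was measured and gIC50 obtained by four-parameter logistic regression.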
A general note: ATP-based viability assays read luminescence as a measure of living cells.

For the compound `COC(=O)N1c2ccc(-c3cnn(CCC(N)=O)c3)cc2N(C(=O)OC(C)C)C[C@@H]1C` [Example I-638], the IC50 on BRD4 BD1 is 100 to 1000 nM; at BRD4 BD2, 50 to 500 nM; in the test with MV4-11 cells (MV4-11, 72 h), greater than 500 nM.
Consider `CC(=O)N1c2ccc(-c3ccc(C(=O)N4CC[C@@H](O)C4)cc3)cc2N(C(=O)OC(C)C)C[C@@H]1C` [Example I-581], for which the IC50 was in the range of 100 to 1000 nM on BRD4 BD1; 50 to 500 nM at BRD4 BD2; 100 to 500 nM with MV4-11 cells (MV4-11, 72 h).
On the same counts, the results for `CC(=O)N1c2ccc(-c3cnn(C4COC4)c3)cc2N(C(=O)OCCC(F)(F)F)C[C@@H]1C` [Example I-69, (S)-3,3,3-trifluoropropyl 4-acetyl-3-methyl-7-(1-(oxetan-3-yl)-1H-pyrazol-4-yl)-3,4-dihydroquinoxaline-1(2H)-carboxylate] are less than 100 nM, less than 50 nM and 100 to 500 nM.
On the same counts, the results for `CC(=O)N1c2ccc(-c3cnn(C4CCCS(=O)(=O)C4)c3)cc2N(C(=O)OC2CCCCC2)C[C@@H]1C` (stereo partly drawn) [Example I-1312] are 100 to 1000 nM, less than 50 nM and 100 to 500 nM.
Turning to `CC(=O)N1c2ccc(-c3ccc(NS(C)(=O)=O)cc3)cc2N(C(=O)OC2CC(F)(F)C2)C[C@@H]1C` [Example I-30, (S)-3,3-difluorocyclobutyl 4-acetyl-3-methyl-7-(4-(methylsulfonamido)phenyl)-3,4-dihydroquinoxaline-1(2H)-carboxylate], the IC50 at BRD4 BD1 is 100 to 1000 nM; on BRD4 BD2 it was greater than 500 nM; in the test on MV4-11 cells (MV4-11, 72 h) it was greater than 500 nM.
As for `CC(=O)N1c2ccc(-c3cccc(C(=O)N4CCOCC4)c3)cc2N(C(=O)c2ccco2)C[C@@H]1C` [Example I-838], the IC50 at BRD4 BD1 was 100 to 1000 nM; at BRD4 BD2, less than 50 nM; in the test with MV4-11 cells (MV4-11, 72 h), 100 to 500 nM.
Consider `CC(=O)N1c2ccc(-c3cnn(C4CC4)c3)cc2N(C(=O)Oc2cccc3ccccc23)C[C@@H]1C` [Example I-265], for which the IC50 at BRD4 BD1 is 1000 to 10000 nM; at BRD4 BD2, less than 50 nM; with MV4-11 cells (MV4-11, 72 h) it was greater than 500 nM.
On the same counts, the results for `CC(=O)N1c2ccc(-c3cnc(C)s3)cc2N(C(=O)c2ccco2)C[C@@H]1C` [Example I-15, (S)-1-(4-(furan-2-carbonyl)-2-methyl-6-(2-methylthiazol-5-yl)-3,4-dihydroquinoxalin-1(2H)-yl)ethanone] are 1000 to 10000 nM, less than 50 nM and 100 to 500 nM.
On the same counts, the results for `CC(=O)N1c2ccc(-c3cnn(C4CCNCC4)c3)cc2N(C(=O)OC2CCCCC2)C[C@@H]1C` [Example I-1303] are 100 to 1000 nM, 50 to 500 nM and less than 100 nM.
On the same counts, the results for `CC(=O)N1c2ccc(-c3ccc(S(=O)(=O)N4CCOCC4)cc3)cc2N(C(=O)c2ccco2)C[C@@H]1C` [Example I-275] are 1000 to 10000 nM, 50 to 500 nM and 100 to 500 nM.
As to `COC(=O)N1c2ccc(-c3cnn(CC4CC4)c3)cc2N(C(=O)OC(C)C)C[C@@H]1C` [Example I-325], the IC50 on BRD4 BD1 is 100 to 1000 nM; at BRD4 BD2 it was 50 to 500 nM; with MV4-11 cells (MV4-11, 72 h), greater than 500 nM.
The matching figures for `CC(=O)N1c2ccc(-c3cnn(C4COC4)c3)cc2N(C(=O)OC2COC2)C[C@@H]1C` [Example I-59, (S)-oxetan-3-yl 4-acetyl-3-methyl-7-(1-(oxetan-3-yl)-1H-pyrazol-4-yl)-3,4-dihydroquinoxaline-1(2H)-carboxylate]: 100 to 1000 nM, 50 to 500 nM and greater than 500 nM.
Take `CC(=O)N1c2ccc(-c3cnn(Cc4cc(C)no4)c3)cc2N(C(=O)OC(C)C)C[C@@H]1C` [Example I-141, (S)-isopropyl 4-acetyl-3-methyl-7-(1-((3-methylisoxazol-5-yl)methyl)-1H-pyrazol-4-yl)-3,4-dihydroquinoxaline-1(2H)-carboxylate]: the IC50 at BRD4 BD1 was 100 to 1000 nM; on BRD4 BD2, less than 50 nM; with MV4-11 cells (MV4-11, 72 h), 100 to 500 nM.
As for `CC(=O)N1c2ccc(-c3cnn(C4CCNCC4)c3)cc2N(C(=O)Oc2ccccn2)C[C@@H]1C` [Example I-1332], the IC50 on BRD4 BD1 is 100 to 1000 nM; at BRD4 BD2 it was less than 50 nM; in the test on MV4-11 cells it was less than 100 nM.
As to `CC(=O)N1c2ccc(-c3ccc(OCCC#N)cc3)cc2N(C(=O)c2ccco2)C[C@@H]1C` [Example I-428], the IC50 lay in the range of 100 to 1000 nM at BRD4 BD1; 50 to 500 nM at BRD4 BD2; 100 to 500 nM in the test on MV4-11 cells (MV4-11, 72 h).
The matching figures for `COC(=O)N1c2ccc(-c3cnn(CC(C)(C)O)c3)cc2N(C(=O)Oc2ccc(F)cc2)C[C@@H]1C` [Example I-1023]: 100 to 1000 nM, less than 50 nM and greater than 500 nM.
Regarding `COC(=O)N1c2ccc(-c3ccc(C(=O)N4CC[C@H](NC(C)=O)C4)cc3)cc2N(C(=O)OC(C)C)C[C@@H]1C` [Example I-571], the IC50 was in the range of 100 to 1000 nM on BRD4 BD1; 50 to 500 nM on BRD4 BD2; 100 to 500 nM in the test on MV4-11 cells (MV4-11, 72 h).
The matching figures for `CC(=O)N1c2ccc(-c3cc(Cl)cc(S(C)(=O)=O)c3)cc2N(C(=O)OC(C)C)C[C@@H]1C` [Example I-1097]: 1000 to 10000 nM, greater than 500 nM and greater than 500 nM.
On the same counts, the results for `CC(=O)N1c2ccc(-c3cnc(N)cn3)cc2N(C(=O)c2ccco2)C[C@@H]1C` [Example I-413] are 1000 to 10000 nM, less than 50 nM and 100 to 500 nM.
The matching figures for `CC(C)OC(=O)N1C[C@H](C)N(C(=O)C2CC2)c2ccc(-c3ccc(C(=O)N4CC(O)C4)cc3)cc21` [Example I-578]: 100 to 1000 nM, 50 to 500 nM and 100 to 500 nM.
For `CCS(=O)(=O)c1ccc(-c2ccc3c(c2)N(C(=O)C2CC2)C[C@H](C)N3C(C)=O)cc1` [Example I-1027], the IC50 is 1000 to 10000 nM on BRD4 BD1; 50 to 500 nM at BRD4 BD2; 100 to 500 nM in the test with MV4-11 cells (MV4-11, 72 h).
On the same counts, the results for `COc1ccc(OC(=O)N2C[C@H](C)N(C(C)=O)c3ccc(-c4cnn(C5CC5)c4)cc32)c(F)c1` [Example I-523] are 100 to 1000 nM, 50 to 500 nM and less than 100 nM.
On the same counts, the results for `CC(=O)N1c2ccc(-c3cnn(C4CCNCC4)c3)cc2N(C(=O)OC2CCC(F)(F)CC2)C[C@@H]1C` [Example I-153, (S)-4,4-difluorocyclohexyl 4-acetyl-3-methyl-7-(1-(piperidin-4-yl)-1H-pyrazol-4-yl)-3,4-dihydroquinoxaline-1(2H)-carboxylate] are 100 to 1000 nM, 50 to 500 nM and 100 to 500 nM.
On the same counts, the results for `CCOC(=O)N1C[C@H](C)N(C(C)=O)c2ccc(-c3ccc(N4CCCC4=O)cc3)cc21` [Example I-1133] are 1000 to 10000 nM, 50 to 500 nM and 100 to 500 nM.
Regarding `CC(C)OC(=O)N1C[C@H](C)N(C(=O)C2CC2)c2ccc(-c3cnn(CC4(C)COC4)c3)cc21` [Example I-620], the IC50 on BRD4 BD1 fell in the range of 100 to 1000 nM; on BRD4 BD2, 50 to 500 nM; with MV4-11 cells (MV4-11, 72 h) it was 100 to 500 nM.
On to `CCOC(=O)N1C[C@H](C)N(C(C)=O)c2ccc(-c3ccc(OC)c(NS(C)(=O)=O)c3)cc21` [Example I-1141], for which the IC50 lay in the range of 100 to 1000 nM on BRD4 BD1; 50 to 500 nM on BRD4 BD2; 100 to 500 nM in the test on MV4-11 cells (MV4-11, 72 h).
On the same counts, the results for `CC(=O)N1c2ccc(-c3ccc(N4CCCS4(=O)=O)c(F)c3)cc2N(C(=O)OC(C)C)C[C@@H]1C` [Example I-1156] are 100 to 1000 nM, 50 to 500 nM and 100 to 500 nM.
The matching figures for `CCS(=O)(=O)c1cccc(-c2ccc3c(c2)N(C(=O)C2CC2)C[C@H](C)N3C(C)=O)c1` [Example I-1090]: 1000 to 10000 nM, 50 to 500 nM and greater than 500 nM.
On the same counts, the results for `CC(=O)N1c2ccc(-c3ccc(S(=O)(=O)n4cccn4)cc3)cc2N(C(=O)C2CCC2)C[C@@H]1C` [Example I-1116] are 1000 to 10000 nM, 50 to 500 nM and greater than 500 nM.
On to `CC(=O)N1c2ccc(-c3cnn(C4CCNCC4)c3)cc2N(C(=O)Oc2ccc(F)cc2)C[C@@H]1C` [Example I-1149], for which the IC50 at BRD4 BD1 was 100 to 1000 nM; at BRD4 BD2 it was 50 to 500 nM; in the test on MV4-11 cells, less than 100 nM.
On to `CC(C)OC(=O)N1C[C@H](C)N(C(=O)C2CC2)c2ccc(-c3cnn(CCn4ccnc4)c3)cc21` [Example I-612], for which the IC50 on BRD4 BD1 is 100 to 1000 nM; on BRD4 BD2 it was 50 to 500 nM; in the test on MV4-11 cells (MV4-11, 72 h), greater than 500 nM.
The matching figures for `CCS(=O)(=O)c1cccc(-c2ccc3c(c2)N(C(=O)C2CCC2)C[C@H](C)N3C(C)=O)c1` [Example I-1091]: 1000 to 10000 nM, 50 to 500 nM and greater than 500 nM.
The matching figures for `CC(=O)N1c2ccc(-c3ccc4c(cnn4C)c3)cc2N(C(=O)c2ccco2)C[C@@H]1C` [Example I-852]: 100 to 1000 nM, 50 to 500 nM and 100 to 500 nM.
The matching figures for `CC(=O)N1c2ccc(-c3cnn(C4CCOCC4)c3)cc2N(C(=O)OC2CCCC2)C[C@@H]1C` [Example I-1147]: less than 100 nM, less than 50 nM and less than 100 nM.
For `CC(=O)N1c2ccc(-c3ccc(S(C)(=O)=O)cn3)cc2N(C(=O)c2ccco2)C[C@@H]1C` [Example I-407], the IC50 on BRD4 BD1 was 1000 to 10000 nM; on BRD4 BD2 it was less than 50 nM; with MV4-11 cells (MV4-11, 72 h), greater than 500 nM.
